Experimental data as given in patent US20090227816A1, “Process for preparing polybrominated compounds” (BROMINE COMPOUNDS LTD., priority 2006, published 2009).

Type: physicochemical
Experimental: The solubility of Deca in bromine was determined as 2.64 g Deca in 100 g bromine at 20° C.

## Brc1c(Br)c(Br)c(Oc2c(Br)c(Br)c(Br)c(Br)c2Br)c(Br)c1Br [Deca, decabromodiphenyl ether]
  solubility of Deca in bromine: 2.64 g Deca in 100 g bromine
